Data from ChEMBL document CHEMBL3044880, “Synthesis, NMR spectral studies and antimicrobial evaluation of some 2-(benzothiazol-2-yl)-1-(alkyl-2r,6c-diarylpiperidin-4-ylidine)hydrazine derivatives” (2013).
Values after ≈ are worked out from the molar mass of the structure shown. Active and inactive are the calls of the source. The calls are words filed in the database; no cut-off is given here.

Assays:
Assay type in all cases: functional
Klebsiella pneumoniae = assay: Antimicrobial activity against Klebsiella pneumoniae MTCC 2272 assessed as growth inhibition after 24 hr by two-fold serial dilution method; conditions: MTCC 2272, 24 h
Bacillus subtilis = assay: Antimicrobial activity against Bacillus subtilis MTCC 121 assessed as growth inhibition after 24 hr by two-fold serial dilution method; conditions: MTCC 121, 24 h
Cryptococcus neoformans = assay: Antimicrobial activity against Cryptococcus neoformans assessed as growth inhibition after 72-96 hr by two-fold serial dilution method
Fusarium oxysporum = assay: Antimicrobial activity against Fusarium oxysporum assessed as growth inhibition after 72-96 hr by two-fold serial dilution method
Aspergillus flavus = assay: Antimicrobial activity against Aspergillus flavus assessed as growth inhibition after 72-96 hr by two-fold serial dilution method
Aspergillus niger = assay: Antimicrobial activity against Aspergillus niger assessed as growth inhibition after 72-96 hr by two-fold serial dilution method
Escherichia coli = assay: Antimicrobial activity against Escherichia coli MTCC 443 assessed as growth inhibition after 24 hr by two-fold serial dilution method; conditions: MTCC 443, 24 h
Staphylococcus aureus = assay: Antimicrobial activity against Staphylococcus aureus MTCC 96 assessed as growth inhibition after 24 hr by two-fold serial dilution method
Pseudomonas aeruginosa = assay: Antimicrobial activity against Pseudomonas aeruginosa MTCC 741 assessed as growth inhibition after 24 hr by two-fold serial dilution method; conditions: MTCC 741, 24 h
Candida albicans = assay: Antimicrobial activity against Candida albicans assessed as growth inhibition by two-fold serial dilution method

MIC (Klebsiella pneumoniae) [µg/mL] | MIC (Bacillus subtilis) [µg/mL] | MIC (Cryptococcus neoformans) | MIC (Fusarium oxysporum) | MIC (Aspergillus flavus) [µg/mL] | MIC (Aspergillus niger) [µg/mL] | MIC (Escherichia coli) [µg/mL] | MIC (Staphylococcus aureus) | MIC (Pseudomonas aeruginosa) [µg/mL] | MIC (Candida albicans) [µg/mL] | MIC (Staphylococcus aureus; MTCC 96, 24 h) [µg/mL] | Structure (SMILES)
50 (≈ 104 µM) | 50 (≈ 104 µM) | 200 µg/mL (≈ 415 µM) | 200 µg/mL (≈ 415 µM) | 50 (≈ 104 µM) | 100 (≈ 208 µM) | 25 (≈ 51.9 µM) | inactive | 100 (≈ 208 µM) |  |  | CC1/C(=N/Nc2nc3ccccc3s2)CC(c2ccc(Cl)cc2)NC1c1ccc(Cl)cc1 (stereo not drawn)
100 (≈ 242 µM) | 100 (≈ 242 µM) | 200 µg/mL (≈ 485 µM) | 200 µg/mL (≈ 485 µM) |  | 100 (≈ 242 µM) | 25 (≈ 60.6 µM) |  | 200 (≈ 485 µM) | 100 (≈ 242 µM) | 200 (≈ 485 µM) | CC1/C(=N/Nc2nc3ccccc3s2)CC(c2ccccc2)NC1c1ccccc1 (stereo not drawn)
200 (≈ 502 µM) | 100 (≈ 251 µM) |  | 200 µg/mL (≈ 502 µM) | 200 (≈ 502 µM) | 200 (≈ 502 µM) | 200 (≈ 502 µM) | inactive | 200 (≈ 502 µM) | 100 (≈ 251 µM) |  | c1ccc(C2CC(=NNc3nc4ccccc4s3)CC(c3ccccc3)N2)cc1 (stereo not drawn)
50 (≈ 106 µM) | 200 (≈ 423 µM) | inactive | inactive | 100 (≈ 212 µM) | 200 (≈ 423 µM) | 100 (≈ 212 µM) |  |  | 100 (≈ 212 µM) | 100 (≈ 212 µM) | COc1ccc(C2C/C(=N\Nc3nc4ccccc4s3)C(C)C(c3ccc(OC)cc3)N2)cc1 (stereo not drawn)
25 (≈ 55.7 µM) | 100 (≈ 223 µM) | 200 µg/mL (≈ 446 µM) | 100 µg/mL (≈ 223 µM) | 100 (≈ 223 µM) | 100 (≈ 223 µM) |  | inactive | 200 (≈ 446 µM) | 100 (≈ 223 µM) |  | CC1/C(=N/Nc2nc3ccccc3s2)CC(c2ccc(F)cc2)NC1c1ccc(F)cc1 (stereo not drawn)
100 (≈ 208 µM) | 100 (≈ 208 µM) | 100 µg/mL (≈ 208 µM) | 100 µg/mL (≈ 208 µM) | 200 (≈ 415 µM) | 50 (≈ 104 µM) | 200 (≈ 415 µM) | inactive | 100 (≈ 208 µM) | 200 (≈ 415 µM) |  | CC1/C(=N/Nc2nc3ccccc3s2)CC(c2ccccc2Cl)NC1c1ccccc1Cl (stereo not drawn)
100 (≈ 175 µM) | 200 (≈ 351 µM) | 100 µg/mL (≈ 175 µM) | 50 µg/mL (≈ 87.7 µM) | 200 (≈ 351 µM) | 200 (≈ 351 µM) | 200 (≈ 351 µM) | inactive | 200 (≈ 351 µM) | 200 (≈ 351 µM) |  | CC1/C(=N/Nc2nc3ccccc3s2)CC(c2ccc(Br)cc2)NC1c1ccc(Br)cc1 (stereo not drawn)
50 (≈ 117 µM) | 200 (≈ 469 µM) | 200 µg/mL (≈ 469 µM) | 100 µg/mL (≈ 234 µM) | 100 (≈ 234 µM) |  |  | inactive | 100 (≈ 234 µM) | 200 (≈ 469 µM) |  | CCC1/C(=N/Nc2nc3ccccc3s2)CC(c2ccccc2)NC1c1ccccc1 (stereo not drawn)

Structure (SMILES) | MIC (Klebsiella pneumoniae) [µg/mL] | MIC (Bacillus subtilis) [µg/mL] | MIC (Cryptococcus neoformans) | MIC (Fusarium oxysporum) | MIC (Aspergillus flavus) [µg/mL] | MIC (Aspergillus niger) [µg/mL] | MIC (Escherichia coli) [µg/mL] | MIC (Staphylococcus aureus) | MIC (Pseudomonas aeruginosa) [µg/mL] | MIC (Candida albicans) [µg/mL] | MIC (Staphylococcus aureus; MTCC 96, 24 h) [µg/mL]
C[C@@H]1[C@H](O)[C@@H](C)/C=C/C=C/C=C/C=C/C=C/C=C/C=C/[C@H](O[C@@H]2O[C@H](C)[C@@H](O)[C@H](N)[C@@H]2O)C[C@@H]2O[C@](O)(C[C@@H](O)C[C@@H](O)[C@H](O)CC[C@@H](O)C[C@@H](O)CC(=O)O[C@H]1C)C[C@H](O)[C@H]2C(=O)O [AMPHOTERICIN B] |  |  | 25 µg/mL (≈ 27.1 µM) | 25 µg/mL (≈ 27.1 µM) | 50 (≈ 54.1 µM) | 50 (≈ 54.1 µM) |  |  |  | 25 (≈ 27.1 µM) | 
CN[C@@H]1[C@H](O[C@H]2[C@H](O[C@H]3[C@H](O)[C@@H](O)[C@H](N=C(N)N)[C@@H](O)[C@@H]3N=C(N)N)O[C@@H](C)[C@]2(O)C=O)O[C@@H](CO)[C@H](O)[C@H]1O [STREPTOMYCIN] | 20 (≈ 34.4 µM) | 12.5 (≈ 21.5 µM) |  |  |  |  | 50 (≈ 86 µM) |  | 50 (≈ 86 µM) |  | 50 (≈ 86 µM)
